As a reminder, the IC50 is the point on the concentration scale where inhibition reaches its midpoint.

Activity calls are given as the source filed them. No cut-off for these calls is given here.

In one data set the target is T1, Activin receptor type-1 (Homo sapiens, UniProt Q04771).
T1 sequence (Q04771 whole entry): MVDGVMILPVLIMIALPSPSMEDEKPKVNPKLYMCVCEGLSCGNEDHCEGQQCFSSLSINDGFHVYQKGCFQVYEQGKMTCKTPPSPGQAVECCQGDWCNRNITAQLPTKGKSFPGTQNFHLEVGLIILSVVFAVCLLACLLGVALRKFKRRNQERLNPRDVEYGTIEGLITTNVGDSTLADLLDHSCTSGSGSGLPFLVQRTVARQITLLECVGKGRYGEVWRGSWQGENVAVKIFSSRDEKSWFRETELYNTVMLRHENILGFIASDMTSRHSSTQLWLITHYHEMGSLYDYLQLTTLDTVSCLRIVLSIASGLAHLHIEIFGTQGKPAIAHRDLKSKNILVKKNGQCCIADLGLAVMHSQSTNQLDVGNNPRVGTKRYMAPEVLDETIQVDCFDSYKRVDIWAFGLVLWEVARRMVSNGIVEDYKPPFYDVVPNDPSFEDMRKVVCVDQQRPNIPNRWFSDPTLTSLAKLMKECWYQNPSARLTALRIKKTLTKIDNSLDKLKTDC
Put plainly: Inhibition of human recombinant GST-tagged-ALK2 (147 to 509 residues) using Casein as substrate in presence of ATP by ADP-Glo luminescence assay. A general note: ADP-Glo first removes unused ATP, then detects ADP through luciferase.

Data set [1] deals with T2, Activin receptor type-1 (Homo sapiens) (UniProt Q04771).
T2 sequence (whole entry): T1 sequence (Q04771 whole entry)
In words: Inhibition of ALK2 in human EKVX cells by Western blotting analysis. Type of data set: cell-based. In general terms: Immunoblotting shows a protein as a band on a membrane.

Data set [2] concerns the target T3, Serine/threonine-protein kinase Chk1 (Homo sapiens, UniProt O14757).
T3 sequence (O14757 whole entry): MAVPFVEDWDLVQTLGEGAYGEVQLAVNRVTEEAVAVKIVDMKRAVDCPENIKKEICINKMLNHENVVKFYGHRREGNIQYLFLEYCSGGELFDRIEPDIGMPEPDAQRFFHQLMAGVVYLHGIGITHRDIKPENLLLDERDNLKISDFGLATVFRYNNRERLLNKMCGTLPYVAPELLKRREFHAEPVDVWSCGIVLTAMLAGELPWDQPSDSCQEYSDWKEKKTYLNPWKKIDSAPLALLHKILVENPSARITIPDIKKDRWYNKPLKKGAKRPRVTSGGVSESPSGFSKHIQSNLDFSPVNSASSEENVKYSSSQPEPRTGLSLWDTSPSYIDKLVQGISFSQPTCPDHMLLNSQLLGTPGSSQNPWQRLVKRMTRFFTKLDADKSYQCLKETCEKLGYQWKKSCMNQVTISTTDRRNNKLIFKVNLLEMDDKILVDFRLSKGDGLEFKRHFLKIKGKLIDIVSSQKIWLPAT
In words: Inhibition of human recombinant CHK1 using CHKtide as substrate in presence of ATP by ADP-Glo luminescence kinase assay.

In data set [3] the target is Casein kinase II subunit alpha (Homo sapiens, UniProt P68400). In words: Inhibition of human recombinant full-length C-terminal His tagged-CK2 alpha expressed in Escherichia coli using tetra-methylbenzidine as substrate in presence of ATP by ELISA analysis. In general terms: An ELISA detects its analyte on a solid surface through an enzyme-linked reagent.
For data set [4], the target named is Cyclin-dependent kinase 2 (Homo sapiens, UniProt P24941). In words: Inhibition of human CDK2 by ELISA analysis.
The nature of data set [5]: Inhibition of human recombinant FLT3 using myelin basic protein as substrate in presence of ATP by ADP-Glo luminescence kinase assay.
A further data set concerns KM12. Put plainly: Antiproliferative activity against human KM12 cells assessed as inhibition of cell viability by MTT assay.
Another data set concerns EKVX. Put plainly: Antiproliferative activity against human EKVX cells assessed as inhibition of cell viability by MTT assay.
Data set [6] deals with Proto-oncogene tyrosine-protein kinase ROS (Homo sapiens, UniProt P08922). Put plainly: Inhibition of human recombinant GST tagged-ROS1 using IRF-1Rtide as substrate in presence of ATP by ADP-Glo luminescence kinase assay.
The target in data set [7] is Mast/stem cell growth factor receptor Kit (Homo sapiens, UniProt P10721). In words: Inhibition of human recombinant N-terminal GST tagged-c-KIT (544 to end residues) expressed in baculovirus infected Sf9 cells using Poly (Glu,Tyr) 4:1 as substrate in presence of ATP by ADP-Glo luminescence kinase assay.
The target of data set [8] is Proto-oncogene tyrosine-protein kinase receptor Ret (Homo sapiens, UniProt P07949). In words: Inhibition of human recombinant GST tagged-RET using IRF-1Rtide as substrate in presence of ATP by ADP-Glo luminescence kinase assay.
For data set [9], the target named is Epidermal growth factor receptor (Homo sapiens, UniProt P00533). Put plainly: Inhibition of human recombinant GST tagged-EGFR using Poly (Glu,Tyr) 4:1 as substrate in presence of ATP by ADP-Glo luminescence kinase assay.
For data set [10], the target named is Serine/threonine-protein kinase pim-1 (Homo sapiens, UniProt P11309). Put plainly: Inhibition of human recombinant full-length PIM1 expressed in baculovirus infected Sf9 cells using S6K as substrate in presence of ATP by ADP-Glo luminescence kinase assay.
Data set [11] in a line: Cytotoxicity against human MCF-10A cells assessed as inhibition of cell viability by MTT assay. In kind it is toxicity, cell-based.
A short description of data set [12]: Cytotoxicity against human FHCs assessed as inhibition of cell viability by MTT assay. Type of data set: toxicity, cell-based. As to conditions: FHC cells.

Chain of Casein kinase II subunit alpha (P68400 whole entry): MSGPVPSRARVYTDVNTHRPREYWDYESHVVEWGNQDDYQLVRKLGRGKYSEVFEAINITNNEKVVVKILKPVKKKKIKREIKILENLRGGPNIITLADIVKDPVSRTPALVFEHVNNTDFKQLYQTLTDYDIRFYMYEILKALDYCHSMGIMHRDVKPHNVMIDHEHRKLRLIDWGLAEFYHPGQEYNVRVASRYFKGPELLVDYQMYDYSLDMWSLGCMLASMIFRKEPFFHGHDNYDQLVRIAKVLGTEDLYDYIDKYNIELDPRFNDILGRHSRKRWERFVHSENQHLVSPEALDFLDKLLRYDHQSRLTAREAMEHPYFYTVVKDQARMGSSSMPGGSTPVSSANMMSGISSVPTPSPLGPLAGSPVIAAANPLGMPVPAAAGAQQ
Chain of Serine/threonine-protein kinase pim-1 (P11309 whole entry): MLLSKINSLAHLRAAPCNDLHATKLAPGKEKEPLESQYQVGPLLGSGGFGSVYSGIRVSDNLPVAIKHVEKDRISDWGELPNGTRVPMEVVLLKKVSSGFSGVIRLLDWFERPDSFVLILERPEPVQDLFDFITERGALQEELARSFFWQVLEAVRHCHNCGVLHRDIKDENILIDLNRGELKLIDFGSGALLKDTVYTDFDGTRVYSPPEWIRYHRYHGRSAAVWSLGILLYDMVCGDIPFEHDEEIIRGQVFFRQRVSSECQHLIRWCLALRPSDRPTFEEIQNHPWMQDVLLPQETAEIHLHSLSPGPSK
Chain of Epidermal growth factor receptor (P00533 whole entry): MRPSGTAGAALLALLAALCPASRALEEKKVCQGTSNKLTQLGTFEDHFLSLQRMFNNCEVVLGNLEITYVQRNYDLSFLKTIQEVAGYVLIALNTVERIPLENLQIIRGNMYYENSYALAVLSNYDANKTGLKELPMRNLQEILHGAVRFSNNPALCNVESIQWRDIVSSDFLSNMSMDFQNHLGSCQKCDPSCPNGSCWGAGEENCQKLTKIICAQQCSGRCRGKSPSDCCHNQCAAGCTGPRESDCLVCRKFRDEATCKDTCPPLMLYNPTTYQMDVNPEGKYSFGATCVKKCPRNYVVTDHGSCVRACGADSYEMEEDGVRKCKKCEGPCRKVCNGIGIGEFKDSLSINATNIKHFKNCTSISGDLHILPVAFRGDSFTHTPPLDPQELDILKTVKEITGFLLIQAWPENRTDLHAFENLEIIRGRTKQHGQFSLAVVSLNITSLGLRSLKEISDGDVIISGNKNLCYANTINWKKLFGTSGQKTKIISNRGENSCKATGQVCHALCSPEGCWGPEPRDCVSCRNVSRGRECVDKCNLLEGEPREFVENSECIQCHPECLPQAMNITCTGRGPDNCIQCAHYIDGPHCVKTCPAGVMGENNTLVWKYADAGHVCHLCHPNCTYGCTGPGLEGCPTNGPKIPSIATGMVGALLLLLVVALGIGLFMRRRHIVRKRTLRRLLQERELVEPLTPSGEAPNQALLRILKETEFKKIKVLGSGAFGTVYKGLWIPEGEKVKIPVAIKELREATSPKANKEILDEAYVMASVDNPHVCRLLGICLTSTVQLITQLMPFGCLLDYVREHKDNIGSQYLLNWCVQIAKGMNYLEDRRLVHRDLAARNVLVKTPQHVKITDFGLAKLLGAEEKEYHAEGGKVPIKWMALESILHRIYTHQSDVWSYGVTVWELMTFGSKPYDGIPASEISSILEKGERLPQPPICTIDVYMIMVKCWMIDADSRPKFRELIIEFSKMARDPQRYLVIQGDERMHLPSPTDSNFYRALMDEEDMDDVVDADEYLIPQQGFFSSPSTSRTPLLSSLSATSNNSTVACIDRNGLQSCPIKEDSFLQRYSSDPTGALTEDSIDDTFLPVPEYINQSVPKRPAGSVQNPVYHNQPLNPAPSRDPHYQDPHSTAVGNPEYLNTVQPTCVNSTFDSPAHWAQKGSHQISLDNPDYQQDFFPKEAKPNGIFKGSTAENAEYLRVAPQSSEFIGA
Chain of Proto-oncogene tyrosine-protein kinase ROS (P08922 whole entry): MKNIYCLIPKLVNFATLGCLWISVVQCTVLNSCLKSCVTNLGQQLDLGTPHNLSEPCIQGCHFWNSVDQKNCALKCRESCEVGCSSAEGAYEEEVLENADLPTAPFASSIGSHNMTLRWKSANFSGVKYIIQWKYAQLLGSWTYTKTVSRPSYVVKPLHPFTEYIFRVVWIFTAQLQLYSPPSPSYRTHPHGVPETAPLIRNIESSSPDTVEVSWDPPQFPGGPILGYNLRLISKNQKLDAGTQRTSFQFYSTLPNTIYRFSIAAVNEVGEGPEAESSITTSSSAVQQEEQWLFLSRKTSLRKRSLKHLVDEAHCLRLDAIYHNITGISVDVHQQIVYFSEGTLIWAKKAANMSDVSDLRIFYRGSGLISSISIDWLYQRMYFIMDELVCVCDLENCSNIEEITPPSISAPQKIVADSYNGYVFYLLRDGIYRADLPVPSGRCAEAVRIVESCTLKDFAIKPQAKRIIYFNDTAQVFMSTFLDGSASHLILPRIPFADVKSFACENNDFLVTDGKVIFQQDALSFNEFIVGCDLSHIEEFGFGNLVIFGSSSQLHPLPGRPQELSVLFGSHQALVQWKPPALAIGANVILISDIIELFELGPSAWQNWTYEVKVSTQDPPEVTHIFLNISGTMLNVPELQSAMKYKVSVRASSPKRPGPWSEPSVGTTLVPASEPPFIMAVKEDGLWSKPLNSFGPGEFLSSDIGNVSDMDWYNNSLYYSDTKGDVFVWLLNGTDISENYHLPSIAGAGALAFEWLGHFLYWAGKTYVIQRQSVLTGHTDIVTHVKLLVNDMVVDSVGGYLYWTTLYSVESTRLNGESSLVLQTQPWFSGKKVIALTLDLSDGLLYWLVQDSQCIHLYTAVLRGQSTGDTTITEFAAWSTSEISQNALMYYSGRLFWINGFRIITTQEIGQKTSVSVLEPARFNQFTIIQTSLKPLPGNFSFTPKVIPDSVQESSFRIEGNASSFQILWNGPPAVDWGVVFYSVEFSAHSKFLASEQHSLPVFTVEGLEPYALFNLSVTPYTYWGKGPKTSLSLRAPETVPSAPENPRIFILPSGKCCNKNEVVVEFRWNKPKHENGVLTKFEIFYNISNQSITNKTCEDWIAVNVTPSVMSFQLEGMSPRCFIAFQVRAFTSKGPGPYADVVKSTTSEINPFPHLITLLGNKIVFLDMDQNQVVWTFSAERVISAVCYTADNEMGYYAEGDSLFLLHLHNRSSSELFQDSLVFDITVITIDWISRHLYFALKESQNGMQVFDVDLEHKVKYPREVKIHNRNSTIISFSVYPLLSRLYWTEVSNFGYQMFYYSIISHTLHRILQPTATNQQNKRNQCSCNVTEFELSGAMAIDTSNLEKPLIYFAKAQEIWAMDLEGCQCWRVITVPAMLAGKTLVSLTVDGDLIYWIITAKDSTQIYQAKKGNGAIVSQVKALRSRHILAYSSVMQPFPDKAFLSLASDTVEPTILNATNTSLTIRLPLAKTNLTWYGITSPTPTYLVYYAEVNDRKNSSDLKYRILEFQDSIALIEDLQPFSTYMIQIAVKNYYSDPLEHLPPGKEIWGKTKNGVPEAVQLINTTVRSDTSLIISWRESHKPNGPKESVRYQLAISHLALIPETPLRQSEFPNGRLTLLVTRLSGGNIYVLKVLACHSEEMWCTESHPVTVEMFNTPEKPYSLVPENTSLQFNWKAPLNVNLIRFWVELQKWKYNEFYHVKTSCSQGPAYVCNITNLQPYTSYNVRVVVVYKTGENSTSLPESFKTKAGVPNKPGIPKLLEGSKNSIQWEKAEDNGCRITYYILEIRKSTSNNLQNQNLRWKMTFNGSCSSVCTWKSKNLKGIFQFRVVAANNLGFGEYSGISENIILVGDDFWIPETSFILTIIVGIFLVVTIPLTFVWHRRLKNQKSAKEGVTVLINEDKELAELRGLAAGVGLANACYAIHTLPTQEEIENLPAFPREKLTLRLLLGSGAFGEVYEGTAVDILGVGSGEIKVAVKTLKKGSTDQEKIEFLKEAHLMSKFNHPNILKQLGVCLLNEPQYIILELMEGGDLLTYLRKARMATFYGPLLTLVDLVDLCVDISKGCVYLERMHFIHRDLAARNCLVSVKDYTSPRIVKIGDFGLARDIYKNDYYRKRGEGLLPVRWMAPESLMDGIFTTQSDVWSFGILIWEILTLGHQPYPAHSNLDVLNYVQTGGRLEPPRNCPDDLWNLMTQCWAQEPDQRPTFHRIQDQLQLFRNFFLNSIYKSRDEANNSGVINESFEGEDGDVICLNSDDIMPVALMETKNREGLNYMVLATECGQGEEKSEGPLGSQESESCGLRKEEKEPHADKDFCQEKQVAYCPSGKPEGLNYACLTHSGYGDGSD

Consider `C[C@H]1Oc2cc(cnc2N)-c2c(nn(C)c2C#N)CN(C)C(=O)c2ccc(F)cc21` [LORLATINIB], for which, on Activin receptor type-1, the IC50 was 29 nM. The inhibition result in data set [1] was “Active”.
For `Cc1nn2c(-c3ccc(Cl)cc3)ccnc2c1C#N`, the IC50 at Activin receptor type-1 came out at 235 nM.
On the same count and under the same terms, the same measure for `Cc1nn2c(-c3ccc(Cl)cc3)ccnc2c1C(N)=O`: 182 nM.
For the compound `Cn1cc(-c2cnn3c(N)cc([C@@H]4CCCNC4)nc23)cn1`, the IC50 in [2] stood at 34 nM.
As for `Cc1nc(-c2c(C)nn3c(-c4ccccc4)ccnc23)no1`, the IC50 was found to be 289 nM in data set [3], 1290 nM in data set [4] and 119 nM in data set [2].
As to `Cc1nn2c(-c3ccc(Br)cc3)ccnc2c1C#N`, the half-maximal inhibitory concentration (IC50) at Activin receptor type-1 was determined as 105 nM.
On the same count and under the same terms, the same measure for `Cc1ccc(-c2ccnc3c(C#N)c(C)nn23)cc1`: 55 nM.
Consider `CCc1nc(C(N)=O)c(Nc2ccc(N3CCC(N4CCN(C)CC4)CC3)c(OC)c2)nc1NC1CCOCC1` [GILTERITINIB], for which, in data set [5], the IC50 stood at 64 nM.
On to `Cc1nn2c(-c3ccc(Cl)cc3)ccnc2c1/C(N)=N/O`, for which the IC50 in [3] amounted to 217 nM; in data set [4] it was 1070 nM; in [2], 327 nM.
Take `Cc1nn2c(-c3ccc(Br)cc3)ccnc2c1C(N)=O`: the IC50 on Activin receptor type-1 was 354 nM.
For the compound `O=C(Nc1cnn2ccc(N3CCC[C@@H]3c3cc(F)ccc3F)nc12)N1CC[C@H](O)C1` [LAROTRECTINIB], the values for the IC50 with KM12 and with EKVX were 4680 nM and 7330 nM, respectively.
With `COc1ccc(-c2ccnc3c(-c4noc(C)n4)c(C)nn23)cc1`, the IC50 stood at 759 nM in data set [6]; 93 nM in data set [3]; 710 nM in [4]; 59 nM in [7]; 537 nM in data set [8]; 37 nM at Activin receptor type-1. The IC50 is 106 nM in data set [9] and 156 nM in data set [2].
On to `Cc1nn2c(-c3ccc(Br)cc3)ccnc2c1/C(N)=N/O`, for which the IC50 in data set [3] is 122 nM; in [4] it was 590 nM; in data set [2], 74 nM.
Consider `O=c1c(O)c(-c2cc(O)c(O)c(O)c2)oc2cc(O)cc(O)c12` [MYRICETIN], for which the IC50 in [10] is 4060 nM.
For the compound `COc1cccc2c1C(=O)c1c(O)c3c(c(O)c1C2=O)C[C@@](O)(C(=O)CO)C[C@@H]3O[C@H]1C[C@H](N)[C@H](O)[C@H](C)O1` [DOXORUBICIN], the IC50 in data set [11] turned out to be 13400 nM; in data set [12], 17600 nM.
In the case of `Cc1nn2c(-c3ccccc3)ccnc2c1/C(N)=N/O`, the concentration for half-maximal inhibition (IC50) in data set [3] is 72 nM; in data set [4] it was 1730 nM; in data set [2], 85 nM.

Source of the values: ChEMBL document CHEMBL5634157, “Design and synthesis of certain 7-Aryl-2-Methyl-3-Substituted Pyrazolo{1,5-a}Pyrimidines as multikinase inhibitors” (Eur J Med Chem, 2023).
